Measured values: patent CN110590914A, “一种抑制和消除幽门螺杆菌生物膜生成的蜂蜜和多肽组合物” (Anhui University of Science and Technology, priority 2019, dated 2019)
Ends that are not written are not given here.

Test system: 幽门螺杆菌SS1菌株
Test: Inhibition of Helicobacter pylori biofilm formation (crystal violet staining, A595)
Type: cell-based
Conditions: peptide 5, 10, 20, 40, 80μg/mL (Fig. 1)

Question: With KRIVQRIKDIKP [实施例4] as the sequence, how does the “Concentration dependence of inhibition of biofilm formation” value read?
Answer: 随着多肽的浓度增大，对生物膜生成的抑制率不断增加
